Patent US20260207548A1, “METHODS AND COMPOSITIONS FOR THE TREATMENT OF VASCULAR ANOMALIES” (THE CHILDREN'S MEDICAL CENTER CORPORATION, priority 2022, published 2026)
“Also recorded” adds a separate entry of the source.

Columns and labels:
[1] = test system: β1- and β2-adrenergic receptors; conditions: cited from earlier work
SOX18 = biological target: T1, SOX18 (Homo sapiens, UniProt P35713); conditions: cited from earlier work
T1 sequence (P35713 1-384): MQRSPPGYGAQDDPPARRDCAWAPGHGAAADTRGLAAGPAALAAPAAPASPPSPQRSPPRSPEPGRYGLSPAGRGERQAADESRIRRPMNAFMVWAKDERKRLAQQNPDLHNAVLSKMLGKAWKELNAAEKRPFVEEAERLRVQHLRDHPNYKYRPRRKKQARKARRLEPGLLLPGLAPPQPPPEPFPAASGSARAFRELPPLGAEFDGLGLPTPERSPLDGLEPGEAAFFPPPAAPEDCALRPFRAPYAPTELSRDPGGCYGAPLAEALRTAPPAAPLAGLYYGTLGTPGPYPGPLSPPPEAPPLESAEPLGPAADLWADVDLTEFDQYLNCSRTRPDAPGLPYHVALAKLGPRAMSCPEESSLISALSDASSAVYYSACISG

[2] = test system: MVP genes (HMGCS1, HMGCR, MVK, ABCA1); assay: Mevalonate pathway (MVP) gene transcripts in differentiating HemSC, bulk RNA-seq and qPCR; assay type: cell-based, human; conditions: for transcripts encoding MVP enzymes (incl. HMGCR, HMGCS1, MVK), RNA-seq: 20 μM, 2 hours, Day 6 of differentiation, hydrochloride
[3] = test system: cholesterol biosynthesis in HUVEC; assay: Endogenous cholesterol in cholesterol-depleted HUVEC by mass spectrometry; assay type: cell-based, human; conditions: 16 hours
Protocol: Cell culture: HUVECs were grown in EBM-2 media (Lonza, CC-3156) and supplemented with EGM-2 bullet kit (Lonza, CC-3162). HUVECs were seeded on 0.5% gelatin-coated 6-well plates at a density of 1.5×10^5 cells/well for overnight.
Methyl-β-cyclodextrin treatment: The day after cell seeding cells were treated with, (MBCD, Sigma #C4555) at a concentration of 2.5 mM to ensure a similar level of endogenous cholesterol among the groups. The treatment with MBCD was completely withdrawn after 4 hours by discarding the media and washed the cells with PBS. […] Cells were then washed with PBS and trypsinized. Following trypsinization cells were washed with PBS and centrifuged (FIG. 4B, 4C).
Cholesterol measurement using Targeted Mass Spectrometry: Lipids were extracted from the cell pellets through one-phase extraction with 202 μL of BuOH: MeOH (1:1) (Sigma #71-36-3 and #67-56-1) that contains […] of cholesterol-d7 (Cayman Chemical #83199-47-7) as the internal standard. The cholesterol analysis was performed on a Thermo Fisher TSQ Altis triple quadrupole mass spectrometer, operated in positive ion mode, coupled to a Vanquish UHPLC system (Thermo Fisher, Waltham, USA) using the transition from precursor mass of m/z 369.3516 (MS1) to m/z 161.1 (MS3) for cholesterol and 376.4 to 161.1 for cholesterol-d7 [REF]. […]

SREBP2 [4] = assay: Western blot of SREBP2 in HemSC undergoing endothelial differentiation; assay type: cell-based, human; conditions: 2 hours on Day 6 of differentiation, hydrochloride
Protocol: (§1) Cells were lysed in a RIPA-based lysis buffer (25 mM Tris HCl pH 7.6, 150 mM NaCl, 1% NP-40, 1% sodium deoxycholate, 0.1% SDS) with protease and phosphatase inhibitors (Cell Signaling Technology). Cell extracts were electrophoresed by sodium dodecyl sulfate-polyacrylamide gel electrophoresis (SDS-PAGE), transferred to nitrocellulose or to polyvinylidene difluoride (PDVF) and probed with SOX18 D-8 (Santa Cruz Biotechnology) or SREBP2 clone 22D5 (MilliporeSigma) and GAPDH (Cell Signaling Technology). All signals were detected by enhanced chemiluminescence. The densitometric analysis was conducted by using Fiji ImageJ software.

SREBP2 [5] = assay: SOX18 shRNA knockdown HemEC: SREBP2 Western blot and qPCR of SREBP2 target genes; assay type: cell-based, human; conditions: shSOX18 HemEC
Protocol: shRNA knockdown of SOX18: HemEC (n=3) were transduced with SOX18 shRNA lentivirus (TRCN0000017450, Sigma) or an empty vector control virus (Sigma) followed by puromycin (1 μg/mL) selection for 5 days. Thereafter, cells were maintained in full media without puromycin. Knockdown efficiency was confirmed by qPCR and Western Blot (FIG. 7C-7G, 8A-8B).
as §1

[6] = test system: Hemangioma-derived stem cells (HemSC); conditions: earlier work; cited from earlier work
HemSC [7] = conditions: earlier work; cited from earlier work
zebrafish = conditions: in vivo; cited from earlier work
breast cancer model = conditions: in vivo; cited from earlier work
[8] = test system: Hemangioma-derived stem cells (HemSC); assay: IH xenograft model: patient-derived HemSC in Matrigel injected subcutaneously into nude mice, human blood vessel formation; assay type: in vivo
Protocol: MilliporeSigma) was prepared in DMSO. […] Dako, Glostrup, 0823) to stain human ECs. Next, sections were incubated with Alexa Fluor 647 chicken anti-mouse IgG (1:200, Invitrogen, Thermo Fisher Scientific) as a secondary antibody (FIG. 9C, 9D).

LDL-receptor = LDL-receptor mRNA in HemSC as indirect measure of HMGCR inhibition; assay type: cell-based, human; conditions: 1 μM atorvastatin, 24 hours
HemSC [9] = conditions: atorvastatin 0.1 μM, 6 days
infantile hemangioma = conditions: infants with IH; cited from earlier work

CC(C)NC[C@H](O)COc1cccc2ccccc12 (single isomer, unassigned) [S(−) enantiomer]
β1 and β2-adrenergic receptor antagonism [1]: potent antagonist

CC(C)NC[C@@H](O)COc1ccc(CC(N)=O)cc1 [R(+) atenolol]
SOX18 activity (SOX18): inhibit

CC(C)NC[C@@H](O)COc1cccc2ccccc12.Cl [R(+) propranolol, R(+) propranolol hydrochloride]
transcripts encoding MVP enzymes (incl. HMGCR, HMGCS1, MVK), RNA-seq [2]: significantly reduced transcripts encoding several enzymes of the MVP | transcripts encoding MVP enzymes (incl. HMGCR, HMGCS1, MVK), RNA-seq ([2]; listed as R+ propranolol): inhibits eight enzymes in the mevalonate pathway | ABCA1 mRNA, qPCR ([2]; 2 hours or 4 days treatment): upregulated | HMGCS1, HMGCR and MVK mRNA, qPCR ([2]; 2 hours or 4 days treatment): Downregulation | downregulation of MVP transcripts ([2]; Day 4 of differentiation): not seen | endogenous cholesterol levels ([3]; 20 μM R+ propranolol after MBCD depletion, hydrochloride): significantly reduced; also recorded: decreased new synthesis of cholesterol | mature 62 kDa SREBP2 (SREBP2 [4]): decreased mature 62 kDa SREBP2 | mature 62 kDa SREBP2 (SREBP2 [4]; listed as R+ propranolol): decreased levels of 62 kDa mature SREBP2 | HMGCS1 and HMGCR mRNA levels (SREBP2 [5]): did not reduce the mRNA levels | HemSC vasculogenesis in vivo [6]: inhibits | HemSC endothelial differentiation in vitro (HemSC [7]): inhibits | SOX18 activity (SOX18): inhibit

O=C(O)c1c(O)cccc1CCc1ccc2ccccc2c1 [Sm4]
endogenous cholesterol levels ([3]; 40 μM Sm4 after MBCD depletion): significantly reduced; also recorded: decreased new synthesis of cholesterol | vascular development (zebrafish): suppresses vascular development in zebrafish | tumor angio- and lymph-angiogenesis (breast cancer model): suppresses

CC(C)c1c(C(=O)Nc2ccccc2)c(-c2ccccc2)c(-c2ccc(F)cc2)n1CC[C@@H](O)C[C@@H](O)CC(=O)O [atorvastatin]
human CD31+ blood vessel formation from HemSC ([8]; atorvastatin 1 mg/kg/d, 7 days): significantly blocked the formation of human blood vessels; also recorded: significantly inhibited human CD31+ blood vessel formation | HemSC blood vessel formation in xenograft model ([8]; overall statement, no single dose): inhibited blood vessel formation; also recorded: significantly reduced HemSC blood vessel formation in a dose-dependent manner; also recorded: inhibit IH vessel formation | LDL-R mRNA (LDL-receptor): significant upregulation of LDL-R mRNA; also recorded: increase LDL receptor mRNA | VEGF-B induced endothelial differentiation (mRNA of CD31 and VE-Cadherin) (HemSC [9]): significantly inhibited endothelial differentiation; also recorded: inhibited VEGF-B induced endothelial differentiation

CC(C)NCC(O)COc1cccc2ccccc12 (stereo not drawn) [propranolol]
complete response rate (infantile hemangioma): 60% | β1 and β2-adrenergic receptor antagonism [1]: non-selective antagonist

CCC(C)(C)C(=O)O[C@H]1C[C@@H](C)C=C2C=C[C@H](C)[C@H](CC[C@@H]3C[C@@H](O)CC(=O)O3)[C@H]21 [simvastatin]
lowest dose that showed significant reduction in IH vessels ([8]; simvastatin dose response 0.1-10 mg/kg/d): 1 mg/kg/day
